Data from patent US11702449B2, “Angiogenesis-inhibiting peptide and composition for preventing and treating angiogenesis-related disease comprising same as active ingredient” (AVIXGEN INC., priority 2015, dated 2023).
Square brackets hold non-standard residues; d marks the D form. Peptide text beside a SMILES is read from it.

Columns and labels:
[1] = test system: human umbilical cord vascular endothelial cells (HUVECs); type: cell-based
Description: Migration analysis for human umbilical cord vascular endothelial cells (HUVECs) was carried out using a Transwell culture plate to which a polycarbonate filter (pore size: 8 μm) with a diameter of 6.5 mm was attached. A surface of the filter was coated with 10 μg of gelatin. Fresh M199 medium (1% fetal bovine serum) containing VEGF (10 ng/ml) was added into a lower compartment of the Transwell plate, HUVECs (1×10^6 cells/100 μl) which had reacted with 0.15 nM or 1.5 nM peptides at room temperature for 30 minutes were carefully transferred to an upper compartment of the plate. The resulting HUVECs were cultured in a CO2-constant temperature and humidity chamber for 4 hours, and the cells migrated under the Transwell filter were stained by H&E staining and quantified using an optical microscope.

[2] = test system: tumor vessels of HCT116 xenograft; assay: Measurement of tumor angiogenesis (FITC-isolectin B4 staining); type: in vivo, mouse; settings: FITC-isolectin B4 staining of tumor tissue
Description: Tumor tissue was fixed with 10% formalin, and inserted into paraffin. A slide was prepared using a tumor tissue section, immersed in xylene to remove paraffin, and rehydrated by stepwise treatment with 100%, 95%, 80%, and 70% ethanol. Afterward, the slide was washed with deionized water several times at room temperature. To inhibit the intracellular activity of a peroxidase, the tissue section was reacted in 0.3% hydrogen peroxide-containing methanol for 15 minutes, and washed with PBS three times. The tissue section was reacted in 3% goat serum-containing PBS for 2 hours at room temperature, and reacted with FITC-isolectin B4 ([…]; Vector Laboratories) for 1 hour. The tissue section was washed with PBS three times and then a permanent slide was prepared using a cryo-mount solution (OCT mouting medium, Tissue Tek, Sakura Finetek), and then tumor vessels were visualized using a fluorescence microscope.

[3] = test system: choroidal neovascularization; assay: Laser-induced choroidal neovascularization mouse model; type: in vivo
Description: To prepare a laser-induced choroidal neovascularization animal model, a Bruch membrane between a retinal layer and a choroidal layer was destroyed by irradiating the mouse retina with a diode laser at an intensity of 400 mW and a duration of 50 ms, and then choroidal neovascularization occurred over 14 days. The retinas of 6 week-old male C57BL/6 mice were irradiated with a laser under the above conditions, the formation of a lesion was confirmed through a safety inspection on day 10, and 1 μl of a 1.5 mM EYLR (SEQ ID NO: 5), RLYE (SEQ ID NO: 2) or Ac-RLYE (SEQ ID NO: 1) solution was intravitreally injected. Here, the same amount of saline was injected into the control group. After 4 days (14 days after the laser irradiation), an experiment for analyzing a therapeutic effect was carried out by extracting the eyeballs of the mice. The extracted eyeballs were fixed in 4% paraformaldehyde for 12 hours, and embedded in paraffin. Sections with a thickness of 4 μm were prepared from paraffin tissue, and subjected to H&E staining. Afterward, an image of a section with the largest choroidal neovascular membrane area was taken from each subject, and the area of the choroidal neovascular membrane was quantitatively analyzed using ImageJ program (NIH, Bethesda, Md., USA). In the saline-injected control group, the average of the choroidal neovascular areas was represented as 100%, and a therapeutic effect of each treatment group was analyzed. Meanwhile, 1 ml (1.25 mg) of FITC-dextran (250 kDa) was injected into the left ventricle one hour before extraction of the mouse eyeball to allow systemic perfusion. After extraction, the eyeball was fixed in 4% paraformaldehyde for 1 hour. Then, the cornea and the crystalline lens were cut off by scissors, the retina was carefully removed using forceps to prepare a complex of retina pigment epithelium/choroid/sclera tissues. The retina flat-mounted complex tissue was observed under a fluorescence microscope and photographed.

HUVECs = assay: Tube formation of vascular endothelial cells on Matrigel (VEGF-induced); type: cell-based, human
Description: A degree of tube formation of HUVECs was determined using growth factor-reduced Matrigel. 250 μl of the Matrigel (10 mg protein/ml) was added into a 24-well plate to allow polymerization for 30 minutes at 37° C. HUVECs cultured in M199 (1% fetal bovine serum) medium for 6 hours were carefully transferred onto the Matrigel in the culture plate at a density of 2×10^5 cells/well, and VEGF (10 ng/ml) were cultured alone or with peptides (0.15 nM) at 37° C. for 20 hours. Meanwhile, peptides that were reacted in PBS or fresh human serum for 3 hours were also used. The degree of tube formation of HUVECs was visualized using an inverted phase-contrast microscope, and a length of the formed tube was measured and quantified by Image-Pro Plus version 4.5 (Media Cybernetics, San Diego, Calif.).

retinal vascular leakage = assay: Streptozotocin (STZ)-induced diabetic retinopathy mouse model, retinal vascular leakage; type: in vivo; settings: STZ diabetic mice
Description: A freshly prepared STZ solution (100 mM) in a citrate buffer (100 mM, pH 4.5) was intraperitoneally injected at 150 mg/kg into the mice, and to prevent hypoglycemic shock, 10% sucrose was sufficiently provided. After two days, blood glucose was measured using an Accu-Chek Performa blood glucose meter (Roche Diagnostics GmbH, Germany), and when non-fasting blood glucose within 1 to 2 weeks was maintained at 300 mg/dl or more, the mice were used as diabetic animal models. The diabetes-induced mice were anesthetized with 2% avertin, and 1 μl of a 1.5 mM EYLR (SEQ ID NO: 5), RLYE (SEQ ID NO: 2) or Ac-RLYE (SEQ ID NO: 1) solution was intravitreally injected. Here, the same amount of PBS was injected into the control group. The peptide was injected, and after 24 hours, 1 ml (1.25 mg) of FITC-dextran (250 kDa) was injected into the left ventricle of each mouse to allow circulation for approximately 5 minutes. The mice were euthanized by cervical dislocation, and the eyeballs were extracted and fixed in 4% paraformaldehyde at room temperature for 1 hour. The retina was isolated from the fixed eyeball to prepare a retinal flat mount, and vascular leakage was observed under a confocal microscope. Meanwhile, the fluorescence of FITC-dextran leaked from retinal vessels was measured using Fluoview software.

HCT116 xenograft = assay: Human colon cancer (HCT116) xenografted mouse model, tumor size and growth; type: in vivo
Description: Human colon cancer cells (HCT116, 1×10^7 cells/100 μl) were subcutaneously injected into the left side of a nude mouse (BALB/c nu/nu, 6 week old, male), and then when a tumor volume reached at least 50 to 70 mm^3 (approx. 7 days), physiological saline (negative control), RLYE (SEQ ID NO: 2) (1.0 mg/kg), R(D)LYE (SEQ ID NO: 6) (1.0 mg/kg) or Ac-RLYE (SEQ ID NO: 1) (1.0 mg/kg; abnormal, experimental group) was intraperitoneally injected once a day. A VEGF neutralizing antibody, bevacizumab, was intraperitoneally injected at 2 mg/kg twice a week (positive control). A tumor size was two-dimensionally measured using calipers. A tumor volume (mm^3) was calculated by the formula: width^2×length×0.52.

[4] = Peptide stability analysis in human serum (HPLC); type: in vitro ADME; settings: for half-life at 1 mg/mL: pH 7.4, human serum
Description: (§1) Serum was separated by centrifugation (tabletop centrifuge, 3000 rpm, 20 min) of blood obtained from a healthy person. The serum was filtrated using a filter (Millipore) with a pore size of […], and then 50 μl of the human serum was mixed with 100 μg of RLYE (SEQ ID NO: 2), R(D)LYE (SEQ ID NO: 6), RLYE-NH2 (SEQ ID NO: 3) or Ac-RLYE (SEQ ID NO: 1) (100 μg/50 PBS, pH 7.4), and incubated by time at a constant temperature of 37° C. A peptide concentration of the sample was calculated by a peak area after the sample was separated by C18 reverse phase high-performance liquid chromatography (HPLC; Vydac protein and peptide C18 column, 0.1% trifluoroacetate in H2O for equilibration, and 0.1% trifluoroacetate in acetonitrile for elution).

Peptide stability in PBS = type: physicochemical; settings: incubated in PBS at 37° C.
Description: as §1
To evaluate RLYE (SEQ ID NO: 2) stability, an RLYE peptide (SEQ ID NO: 2) was added to each of PBS and human serum, and incubated by time at a constant temperature of 37° C.

[5] = 1 μl of 1.5 mM solution intravitreal, H&E area analysis

`CC(=O)N[C@@H](CCCNC(=N)N)C(=O)N[C@@H](CC(C)C)C(=O)N[C@@H](Cc1ccc(O)cc1)C(=O)N[C@@H](CCC(=O)O)C(N)=O` [Ac-RLYE-NH2] (Ac-RLYE-NH2) showed an IC50 [1] of 80200 pM.

In the case of `CC(=O)N[C@@H](CCCNC(=N)N)C(=O)N[C@@H](CC(C)C)C(=O)N[C@@H](Cc1ccc(O)cc1)C(=O)N[C@@H](CCC(=O)O)C(=O)O` [Ac-RLYE] (Ac-RLYE-OH; C-terminus assumed), the “effect of inhibiting cancer angiogenesis compared with RLYE” value [2] is reported as “higher than that of RLYE”, the “choroidal neovascularization inhibition compared with RLYE” value [3, 5] is reported as “highly effective compared to RLYE” and the “effect on choroidal neovascularization” value [3, 5] is reported as “effectively reduced”. For the same compound, the “choroidal neovascularization inhibition compared with RLYE, retinal flat mount” value ([3]; FITC-dextran, retinal flat mount technique) was “higher effect of inhibiting choroidal neovascularization than RLYE”, the “inhibition of VEGF-induced tube formation” value (HUVECs; peptides pretreated with PBS for 3 hours) was “effectively inhibited” and the “inhibition of VEGF-induced tube formation” value (HUVECs; peptides pretreated with human serum for three hours) was “effectively inhibited”. The “effect on retinal vascular leakage” value (retinal vascular leakage; 1 μl of 1.5 mM solution intravitreal, 24 hours) was “effectively inhibited”, the “inhibitory effect on retinal vascular leakage compared with RLYE” value (retinal vascular leakage; intravitreal) was “higher inhibitory effect on blood vascular leakage than RLYE” and the IC50 [1] was 50 pM. The “anticancer effect compared with RLYE” value (HCT116 xenograft; 1.0 mg/kg/day intraperitoneal, HCT116 nude mouse) was “higher than that of RLYE”, the “effect on size and growth of tumor” value (HCT116 xenograft; 1.0 mg/kg/day intraperitoneal, once a day, HCT116 nude mouse) was “inhibited the size and growth of a tumor” and the “anticancer effect compared with bevacizumab” value (HCT116 xenograft; peptide 1.0 mg/kg/day i.p., bevacizumab 2.0 mg/kg twice a week) was “a little lower than that of the positive control bevacizumab”. It also gave a half-life at 1 mg/mL ([4]; 37° C.) of 8.8 h.

Compound `CC(C)C[C@H](NC(=O)[C@H](N)CCCNC(=N)N)C(=O)N[C@@H](Cc1ccc(O)cc1)C(=O)N[C@@H](CCC(=O)O)C(=O)O` [R(D)LYE] (H-[dR]LYE-OH; N-terminus and C-terminus assumed) has an IC50 [1] of 60 pM and a half-life at 1 mg/mL ([4]; 37° C.) of 7 h.

In the case of `CC(C)C[C@H](NC(=O)[C@@H](N)CCCNC(=N)N)C(=O)N[C@@H](Cc1ccc(O)cc1)C(=O)N[C@@H](CCC(=O)O)C(=O)O` [RLYE, Arg-Leu-Tyr-Glu, reference compound] (H-RLYE-OH; N-terminus and C-terminus assumed), the “degradation in PBS” value (Peptide stability in PBS) is reported as “did not occur”, the IC50 [1] is reported as 80 pM and the “RLYE degradation induced by albumin” value ([4]; albumin added, 37° C.) is reported as “did not induce”. For the same compound, the “RLYE degradation by human serum with bestatin” value ([4]; aminopeptidase B inhibitor bestatin added) was “effectively inhibited” and the half-life at 1 mg/mL ([4]; 37° C.) was 1.2 h.

For `CC(C)C[C@H](NC(=O)[C@@H](N)CCCNC(=N)N)C(=O)N[C@@H](Cc1ccc(O)cc1)C(=O)N[C@@H](CCC(=O)O)C(N)=O` [RLYE-NH2] (H-RLYE-NH2; N-terminus assumed), the IC50 [1] was 110 pM and the half-life at 1 mg/mL ([4]; 37° C.) was 1.3 h.

For “EYLR: reverse-sequence of the RLYE peptide [reference compound]”, the “effect on choroidal neovascularization” value [3, 5] was “had no change”.
